Experiments:
Assay in all cases: relative viability (nuclei count vs DMSO), 5 days (fraction); higher = more cells survive
[1] = compound: C1COCCN1C2=NC(=NC3=C2OC4=C3C=CC=N4)C5=CC(=CC=C5)NC(=O)C6=CN=C(C=C6)N
Outline: (§1)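 Viability is treated-well nuclei as a fraction of vehicle-well nuclei, reported as the median across plates. Before counting, lung cancer cell lines were kept overnight at 37 °C in 1536-well plates, pinned with five √10-spaced library-drug doses on vehicle-anchored plates, and left 5 days without medium change, then fixed, permeabilised and Hoechst-stained in one step, imaged at 4× and counted by MetaXpress. A plate passed only if control CV was below 25% and at least one doubling occurred.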

SGI-1776 = compound: CN1CCC(CNc2ccc3ncc(-c4cccc(OC(F)(F)F)c4)n3n2)CC1 [SGI-1776]
Outline: as §1

Entinostat = compound: Nc1ccccc1NC(=O)c1ccc(CNC(=O)OCc2cccnc2)cc1 [Entinostat]
Outline: as §1

[2] = compound: C1COCCN1C2=NC(=NC3=C2OC4=C3C=CC=N4)C5=CC(=CC=C5)NC(=O)C6=CN=C(C=C6)N + CC(=O)Nc1cccc(-n2c(=O)n(C3CC3)c(=O)c3c(Nc4ccc(I)cc4F)n(C)c(=O)c(C)c32)c1 [Trametinib] (partner 0.02 µM)
Outline: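 Relative viability equals treated-well nuclei counts divided by vehicle-well nuclei counts. Counts came from 4× images of lung cancer cell lines grown in 1536-well plates for 5 days after pin-tool dosing on the day after seeding. Dosing used one drug alone or a fixed anchor-drug dose plus five library-drug doses (not always all listed) in √10 steps, and values are medians of duplicate plates.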

Cell Line: UMC-11
- relative viability ([1]; 0.02 µM): 0.983
- relative viability ([1]; 0.06325 µM): 1.05
- relative viability ([1]; 0.2 µM): 0.945
- relative viability ([1]; 0.6325 µM): 1.13
- relative viability ([1]; 2 µM): 0.818
- relative viability (SGI-1776; 0.08 µM): 1
- relative viability (SGI-1776; 0.8 µM): 1.04
- relative viability (SGI-1776; 2.53 µM): 0.923
- relative viability (SGI-1776; 8 µM): 0.779
- relative viability (Entinostat; 0.02 µM): 1.14
- relative viability (Entinostat; 0.06325 µM): 1.11
- relative viability (Entinostat; 0.2 µM): 0.918
- relative viability (Entinostat; 0.6325 µM): 0.287
- relative viability (Entinostat; 2 µM): 0.203
- relative viability ([2]; first compound 0.02 µM): 0.733
- relative viability ([2]; first compound 0.06325 µM): 0.809
- relative viability ([2]; first compound 0.2 µM): 0.572
- relative viability ([2]; first compound 0.6325 µM): 0.706
- relative viability ([2]; first compound 2 µM): 0.614

Source: the supplement of paper PMC10307832
